# Laboratory results published in publication PMC4637315, “Hydroxycarboxylic acid receptors are essential for breast cancer cells to control their lipid/fatty acid metabolism” (Oncotarget, 2015).
# Experiments:
# Assay type in all cases: cell-based
# HCA1 [1] = molecular target: T1, HCA1 (Homo sapiens, UniProt Q9BXC0); experiment: AlphaScreen cAMP assay, inhibition of forskolin-induced cAMP in BT-474 cells, pertussis toxin sensitive
# T1 construct: gene HCAR1; endogenous receptor in BT-474 cells
# HCA3 [2] = molecular target: T2, HCA3 (Homo sapiens, UniProt P49019); experiment: cAMP decrease in BT-474 cells, blocked by pertussis toxin
# T2 construct: gene HCAR3; endogenous receptor in BT-474 cells
# HCA2 = molecular target: T3, HCA2 (Homo sapiens, UniProt Q8TDS4); experiment: AlphaScreen cAMP assay, inhibition of forskolin-induced cAMP in BT-474 cells, pertussis toxin sensitive
# T3 construct: gene HCAR2; endogenous receptor in BT-474 cells
# HCA3 [3] = molecular target: T2, HCA3; experiment: as above
# HCA1 [4] = molecular target: T1, HCA1; experiment: cAMP decrease in BT-474 cells, blocked by pertussis toxin
# T1 sequence (Q9BXC0 whole entry): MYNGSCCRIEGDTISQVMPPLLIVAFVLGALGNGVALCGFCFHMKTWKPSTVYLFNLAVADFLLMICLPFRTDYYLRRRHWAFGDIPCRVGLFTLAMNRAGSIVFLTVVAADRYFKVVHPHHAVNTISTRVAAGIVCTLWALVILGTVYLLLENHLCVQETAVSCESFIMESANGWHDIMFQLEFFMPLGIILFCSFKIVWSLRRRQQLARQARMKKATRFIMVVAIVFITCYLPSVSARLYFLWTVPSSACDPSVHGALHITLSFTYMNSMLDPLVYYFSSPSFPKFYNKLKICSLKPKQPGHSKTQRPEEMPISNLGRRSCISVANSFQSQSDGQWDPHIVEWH
# T2 sequence (P49019 whole entry): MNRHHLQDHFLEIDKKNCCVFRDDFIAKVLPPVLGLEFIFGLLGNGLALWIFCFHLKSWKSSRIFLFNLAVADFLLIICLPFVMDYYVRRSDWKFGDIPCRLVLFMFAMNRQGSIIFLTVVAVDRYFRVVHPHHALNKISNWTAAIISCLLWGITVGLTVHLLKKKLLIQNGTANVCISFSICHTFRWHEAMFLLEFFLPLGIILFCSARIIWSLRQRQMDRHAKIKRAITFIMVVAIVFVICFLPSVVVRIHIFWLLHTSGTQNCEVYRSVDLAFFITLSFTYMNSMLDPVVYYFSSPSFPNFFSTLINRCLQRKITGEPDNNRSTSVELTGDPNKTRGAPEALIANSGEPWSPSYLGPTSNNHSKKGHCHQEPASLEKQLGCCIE
# T3 sequence (Q8TDS4 whole entry): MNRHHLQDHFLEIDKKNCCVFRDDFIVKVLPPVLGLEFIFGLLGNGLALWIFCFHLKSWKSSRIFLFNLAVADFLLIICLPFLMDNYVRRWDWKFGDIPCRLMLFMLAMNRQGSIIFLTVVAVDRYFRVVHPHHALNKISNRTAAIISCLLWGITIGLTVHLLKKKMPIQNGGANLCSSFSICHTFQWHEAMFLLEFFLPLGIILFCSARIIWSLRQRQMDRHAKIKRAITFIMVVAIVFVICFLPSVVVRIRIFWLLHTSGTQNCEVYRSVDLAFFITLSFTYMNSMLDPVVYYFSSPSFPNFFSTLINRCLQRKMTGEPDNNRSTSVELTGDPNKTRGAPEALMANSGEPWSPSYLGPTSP
structure (smiles),measurement,setting,value
C[C@H](O)C(=O)O [lactate],EC50,HCA1 [1],3400 µM
"CC(C)n1nnc2cc(C(=O)O)ccc21 [IPBT-5CA, 1-(1-methylethyl)-1H-benzotriazole-5-carboxylic acid]","cAMP decrease in BT-474 cells, blocked by pertussis toxin",HCA3 [2],synthetic HCA agonist-induced decrease in intracellular cAMP levels in BT-474 cells (Figure 3D-F)
"CC(O)CC(=O)O (centres unmarked) [3HB, 3-hydroxybutyrate]",EC50,HCA2,460 µM
"CCCCCC(O)CC(=O)O (centres unmarked) [3HO, 3-hydroxyoctanoate]",EC50,HCA3 [3],9.5 µM
"O=C(O)c1cc(O)cc(O)c1 [3,5 DHB, 3,5-dihydroxybenzoic acid]","cAMP decrease in BT-474 cells, blocked by pertussis toxin",HCA1 [4],synthetic HCA agonist-induced decrease in intracellular cAMP levels in BT-474 cells (Figure 3D-F)
